Patent publication US8557512B2, “Method of screening activators and/or inhibitors of insulin receptor substrate 2” (HMI Medical Innovations, LLC, priority 2003, dated 2013)
Where no end group is shown, it is not given here.

What was measured:
IRS2 [1] = details: β-cell lines; Jhala et al., Genes Dev. 17:1575-1580 (2003); cited from earlier work
IRS2 [2] = experiment: IRS2 levels in human islets; type: cell-based
From the text: (§1) Drugs that increase IRS2 expression in mice stimulate beta cell function. An example of such a drug is exendin-4. Exendin-4 is a homolog of the natural peptide produced in the intestine called glucagon-like peptide-1. GLP1/Ex4 upregulates IRS2 levels in β-cells because they stimulate the production of cAMP. […] Other drugs that increase cAMP levels in these and other cells also increase IRS2 levels and stimulate its signaling pathways. Many of the positive actions of GLPL1/Ex4 on mouse and human cells are prevented by blocking the IRS2 gene from expressing its IRS2 protein product.

IRS2 mice = experiment: Restoration of normal glucose homeostasis in IRS2 mice; type: in vivo; details: administration by injection
From the text: (§2) Furthermore, GLP-1 also stimulates β-cell proliferation and neogenesis, and reduces or eliminates apoptosis of β-cells.

IRS2 [3] = experiment: IRS2 levels in mouse islets; type: cell-based
From the text: as §1

IRS2 [4] = experiment: IRS2 upregulation in beta cells and other cells; type: cell-based
From the text: as §2

| Substance | IRS2 expression (IRS2 [1]) | levels of IRS2 (IRS2 [2]) | restore normal glucose homeostasis (IRS2 mice) | levels of IRS2 (IRS2 [3]) | IRS2 upregulation (IRS2 [4]) |
| --- | --- | --- | --- | --- | --- |
| exendin-4 | strongly increases IRS2 expression | upregulate the levels of IRS2 | unsuccessful | upregulate the levels of IRS2 | – |
| glucagon-like peptide-1 (HAEGTFTSDVSSYLEGQAAKEFIAWLVKGR; ends and bridges not checked; UniProt P01275 98-127, looked up) [GLP-1, natural peptide produced in the intestine] | strongly increases IRS2 expression | upregulate the levels of IRS2 | – | upregulate the levels of IRS2 | strongly up regulates IRS2 |
